This note sets out measurements from ChEMBL document CHEMBL5647684, “Expression of Src and FAK in hepatocellular carcinoma and the effect of Src inhibitors on hepatocellular carcinoma in vitro” (2009).

Common to all, as to format: functional
In test [1] the test system is HepG2. Description: Growth inhibition of human HepG2 cells after 3 days by MTT assay. The settings on record: time 3 day; for GI50: Homo sapiens, HepG2, 72 h.
The subject of test [2] is Huh-7. Kind of test: Growth inhibition of human Huh-7 cells after 3 days by MTT assay. The settings on record: time 3 day; for GI50: Homo sapiens, Huh-7, 72 h.
For test [3], the system named is PLC-PRF-5. Kind of test: Growth inhibition of human PLC-PRF-5 cells after 3 days by MTT assay. The note with it: time 3 day.
Test [4] deals with Hep 3B2. Description: Growth inhibition of human Hep3B cells after 3 days by MTT assay. The settings on record: time 3 day. A general note: Tetrazolium dyes change colour on reduction, which living cells bring about.

What is called GI50 is the concentration giving 50% growth inhibition. In test [1], `Cc1nc(Nc2ncc(C(=O)Nc3c(C)cccc3Cl)s2)cc(N2CCN(CCO)CC2)n1` [DASATINIB ANHYDROUS] yielded a GI50 of more than 50000 nM and a GI80 of more than 50000 nM. In test [2], this molecule gave a 50% growth inhibitory concentration (GI50) of 1970 nM and a GI80 of 7135 nM.
Regarding `O=C(Cc1ccc(-c2ccc(OCCN3CCOCC3)cc2)cn1)NCc1ccccc1` [TIRBANIBULIN], the GI50 was determined as 13 nM in test [3] (Homo sapiens, PLC-PRF-5, 72 h); 26 nM in test [4] (Homo sapiens, Hep3B, 72 h); 60 nM in test [1]; 9 nM in test [2]. Moreover, the GI80 in test [3] came to 24 nM; in test [4] it was 88 nM; in test [1], 3658 nM; in test [2], 23 nM.
